The values below come from the METLIN SMRT retention time set (Domingo-Almenara et al. 2019).

The nature of this data set: gradient 5% acetonitrile 3 min, to 50% in 2 min, to 85% in 15 min, held 3 min, 100 µL/min. Particulars: column: Zorbax Extend-C18 2.1 x 50 mm; eluents: water / acetonitrile, 0.1% formic acid. An outline of the steps: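 The mobile phases were water and acetonitrile, each with 0.1% formic acid, pumped at 100 μL/min through a Zorbax Extend-C18 column (2.1 × 50 mm, 1.8 μm). Pure standards were injected as mixtures of ~100 molecules and detected by a quadrupole time-of-flight mass spectrometer in positive and negative ionization mode. Retention time came from computationally picked adduct peaks, each inspected by hand.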
Turning to `CC1=C(c2ccccc2)S(=O)(=O)N=C1N1CCC(NC(=O)CCC(C)C)CC1`, the RP-LC retention time came out at 857 s.
Compound `Cc1cc(-c2c(C)sc(C)c2S(=O)(=O)Nc2ccc(C)c(Cl)c2)n[nH]1` came in with an RP-LC retention time of 1100 s.
Take `Cc1ccc(-c2ccc(=O)n(Cc3nc(-c4ccc5c(c4)OCO5)no3)n2)cc1`: the RP-LC retention time was found to be 1020 s.
As for `Cc1cc(Cl)ccc1S(=O)(=O)N1CCN(C2CCN(Cc3ccccn3)C2=O)CC1` (centres undefined), the figure is 608 s.
With `O=C(c1ccc(S(=O)(=O)c2ccc(Br)cc2)nc1)N1CCN(c2ncccn2)CC1` the figure was 835 s.
With `Cc1ccc(CNC(=O)C2CCN(S(=O)(=O)c3ccc4c(c3)NC(=O)C(C)O4)CC2)cc1` (centres undefined) the figure was 824 s; with `CCCN1C(=O)c2c(C(=O)NCc3ccccc3)ncn2CC1(C)C(=O)NC1CCCC1` (centres undefined), 756 s.
In turn, `CCC(C)NC(=O)Cn1nc2c3cc(-c4ccc(F)cc4)nn3ccn2c1=O` (centres undefined) returned an RP-LC retention time of 764 s.
As for `CC(=O)N1CCc2cc(S(=O)(=O)C(C)CC(=O)N3CCN(c4cccc(Cl)c4)CC3)ccc21` (centres undefined), the figure is 891 s; as for `CCc1cccc(Nc2c(C(=O)N3CCCCC3C)cnc3nc(C)ccc23)c1` (centres undefined), 677 s; as for `Cc1cccc(CN2CC(=O)N(c3ccc(C)c(C)c3)[C@@H]3CS(=O)(=O)C[C@@H]32)c1`, 906 s.
With `CCOC(=O)N1CCN(C(=O)CCc2cc3cc(OC)ccc3[nH]c2=O)CC1` the figure was 662 s; with `CCOc1ccc(-c2[nH]nc3nc(-c4cccc(F)c4)cc(C(=O)O)c23)cc1`, 843 s.
As for `COCc1cc(=O)n(CC(=O)Nc2cccc(SC)c2)c(N2CCOCC2)n1`, the RP-LC retention time stood at 857 s.
Turning to `O=C(CCc1ccccc1)NCCn1c(C(F)(F)F)nc2cccnc21`, the RP-LC retention time came to 998 s.
`Cc1ccc(-c2cn3c(CC(=O)Nc4ccc5c(c4)OCCO5)csc3n2)cc1C` yielded an RP-LC retention time of 806 s.
As for `Nc1nc(-c2ccccc2)c(C(=O)Nc2ccccc2)s1`, the figure is 706 s; as for `Fc1ccc(Cc2nc3nccc(-c4cccs4)n3n2)cc1`, 915 s.
Consider `Cc1noc(-c2ccnc(-n3ncc(C(=O)NC4CCCCCC4)c3C)c2)n1`, for which the RP-LC retention time is 968 s.
As for `O=C(Nc1cc(F)ccc1Cl)c1cnc(-c2ccc(F)cc2)nc1-c1ccncc1`, the figure is 1010 s.
As for `CC(C)CN1CCn2cc(C(=O)N3CCN(c4ccccn4)CC3)nc2C1`, the RP-LC retention time amounted to 526 s.
With `CCN1CCN(c2ccc(-c3ccc(OC)c(S(=O)(=O)N4CCOCC4)c3)nn2)CC1` the figure was 585 s; with `O=C(c1cn(-c2cc(N3CCSCC3)ncn2)cn1)N1CCN(c2ncccn2)CC1`, 739 s.
As for `c1ccc(CNc2c(-c3ccc4c(c3)OCCO4)nc3ncccn23)cc1`, the figure is 710 s; as for `CCOc1ccccc1C1NC(=O)N(CC(=O)Nc2ccc3c(c2)CCC3)C2=C1C(=O)OC2` (centres undefined), 900 s; as for `O=C(NC1CCCC1)c1nc(-c2ccnc(N3CCCCC3)c2)no1`, 763 s.
For `COC(=O)c1cccc(Nc2c(-c3ccc(OC)cc3)nc3cnccn23)c1`, the RP-LC retention time is 810 s.
With `O=C(NCCOc1ccccc1)Nc1ccc(OC(F)(F)F)cc1` the figure was 910 s; with `O=C(NCC1CC1)C1CCN(C(=O)c2ncn3c2COC(c2ccccc2)C3)CC1` (centres undefined), 681 s.
`CCc1nccn1Cc1nc(-c2cccc(OC)c2OC)no1` showed an RP-LC retention time of 605 s.
As for `O=C(N[C@@H]1CN(c2ncccn2)C[C@H]1CO)c1nccc2ccccc12`, the figure is 613 s; as for `CC(C)c1nnc2n1CCN(C(=O)COc1ccc(Cl)cc1)C2`, 692 s.
With `COc1ccc(-c2cn3ccn(-c4ccc(Cl)cc4)c(=O)c3n2)cc1` the figure was 828 s; with `CCc1c(C2CCN(C(=O)NCCc3ccccc3)CC2)noc1N`, 732 s; with `O=C(NCCC1=CCCCC1)C1CCc2ncc(-c3ccsc3)n2C1` (centres undefined), 601 s.
As for `CC(C)Cn1cc(CCNS(=O)(=O)c2cccc(C(F)(F)F)c2)c2cccnc21`, the figure is 1030 s.
In turn, `CCc1cccc(NC(=O)Cn2cc(C(=O)N3CCCC3)c(=O)c3ccc(C)nc32)c1` displayed an RP-LC retention time of 753 s.
With `O=C(NC1CCCCC1)c1csc(N2CCN(c3ccccc3)CC2)n1` the figure was 1160 s; with `CCc1nnc(-c2ccc(S(=O)(=O)N3CCN(C(C)C)CC3)o2)o1`, 592 s.
With `CCOc1ccc(S(=O)(=O)N2CCCC2c2nc(-c3cccc(Cl)c3)no2)cc1` (centres undefined) the figure was 1230 s; with `O=C(CCc1csc(NC(=O)c2ccc(F)cc2)n1)NCc1nc2ccccc2[nH]1`, 577 s.
The compound `O=C(c1csc(-c2ccc(N3CCCC3)nc2)n1)N1CCCC1` returned an RP-LC retention time of 596 s.
As to `Cc1[nH]c(C(=O)N2CCCC(C(=O)NCCCN3CCOCC3)C2)c(C)c1C` (centres undefined), the RP-LC retention time was found to be 597 s.
With `CCC(=O)N1CCc2cc(N3CC(C(=O)Nc4cccc(C)c4)CC3=O)ccc21` (centres undefined) the figure was 693 s; with `O=C(CCc1nnc2ccc(NCc3ccccc3Cl)nn12)N1CCN(c2ccccn2)CC1`, 613 s; with `O=[N+]([O-])c1ccc(-c2csc(Nc3ccccc3)n2)cc1`, 1130 s.
With `CCc1ccc(S(=O)(=O)c2cnc(N3CCCC(C)C3)nc2N)cc1` (centres undefined) the figure was 1150 s.
As for `COc1ccc(C2(C(=O)N3CC(n4c(C)cnc4-c4ccccc4)C3)CC2)cc1`, the figure is 661 s.
On to `O=C(NCC(=O)N1CCCc2ccccc21)c1cccc(Br)c1`, for which the RP-LC retention time stood at 822 s.
With `O=C(Cn1nc(N2CCOCC2)c2ccccc2c1=O)Nc1cccc(Br)c1` the figure was 844 s; with `O=S(=O)(c1ccc2nc(N3CCN(c4ccccc4)CC3)ccc2c1)N1CCCCC1`, 1030 s; with `CC(C)c1ccc(NC(=O)C2CCCN(c3nc4ccccc4nc3C(F)(F)F)C2)cc1` (centres undefined), 957 s.
The compound `CCC(=O)Nc1nc(-c2ccc3c(c2)NC(=O)CO3)cs1` gave an RP-LC retention time of 704 s.
In the case of `CCOc1ccc(CNC(=O)C2CCN(Cc3cn(C)c4ccccc34)CC2)cc1OCC`, the RP-LC retention time was 708 s.
The compound `O=C(NCCc1ccco1)C1CCCN(c2ccc(=O)n(-c3ccc(F)cc3)n2)C1` (centres undefined) displayed an RP-LC retention time of 773 s.
As to `Cc1ccccc1-n1c(/C=C\c2ccccn2)nc2ccccc2c1=O`, the RP-LC retention time amounted to 948 s.
For `CCN1CCCn2cc(S(=O)(=O)Nc3ccc(F)c(Cl)c3)cc2C1=O`, the RP-LC retention time was found to be 738 s.
As for `O=C(c1cccc(OCC2CCCN(C(=O)C3CCCO3)C2)c1)N1CCCC1` (centres undefined), the figure is 718 s.
Consider `CCC(=O)NCc1nc2c(n1C)CN(S(=O)(=O)c1ccc(CC)cc1)CC2`, for which the RP-LC retention time was found to be 581 s.
As for `COc1ccc(-n2ncc3c(=O)n(Cc4nc(-c5ccc(OC)c(OC)c5)no4)cnc32)cc1`, the figure is 910 s; as for `CCC(c1cccs1)N1C(=O)[C@H]2CN(S(=O)(=O)c3ccc(C)cc3C)C[C@H]2C1=O` (some centres undefined), 842 s; as for `O=C(CCc1c(-c2ccc(F)cc2)nc2ccccn12)Nc1cccc(C(F)(F)F)c1`, 752 s.
As for `O=C(NC1CCN(c2cc(-c3ccc(F)cc3)[nH]n2)C1)c1cccc(OC(F)(F)F)c1` (centres undefined), the figure is 840 s; as for `COc1ccccc1NS(=O)(=O)c1cc2n(c1)CCN(C(C)C)C2=O`, 733 s; as for `Cc1cc(C)n(CC(=O)N2CCCCCCNC(=O)[C@@H]3CCCC[C@@H]32)n1`, 715 s.
With `CCOC(=O)c1cccc(Nc2c(-c3ccc(Br)cc3)nc3cnccn23)c1` the figure was 1040 s; with `Cc1ccc(S(=O)(=O)C(F)(F)F)cc1N1C(=O)c2ccccc2C1=O`, 942 s.
`Cc1nc([N+](=O)[O-])cn1-c1nc2ccccn2c1[N+](=O)[O-]` returned an RP-LC retention time of 753 s.
As for `Cc1ccc(Cl)cc1N1C(=O)CN(S(C)(=O)=O)CC1(C)C(=O)NC1CCCCCC1` (centres undefined), the figure is 942 s; as for `Cc1ccc(-c2cn3c(n2)N(C(=O)C2CCCO2)CCC3)cc1` (centres undefined), 635 s.
For the compound `Cn1cc(CCN2CCC(C(=O)NCc3ccc(F)cc3Cl)CC2)c2cccnc21`, the RP-LC retention time is 640 s.
Consider `CC1CCCN(CCCNC(=O)C2CCCN(c3ncnc4c3nc3n4CCCCC3)C2)C1` (centres undefined), for which the RP-LC retention time was found to be 585 s.
Regarding `COc1ccccc1C(=O)N1CCN(S(=O)(=O)c2cc3c4c(c2)CCC(=O)N4CCC3)CC1`, the RP-LC retention time amounted to 771 s.
With `c1nc(N2CCOCC2)c2cn[nH]c2n1` the figure was 340 s; with `O=C(c1ccoc1)N1CC(F)(F)C[C@H]1c1nnc(-c2ccncc2)o1`, 668 s.
With `Cc1ccc2c(=O)c3c([nH]c2c1C)CCN(CC(=O)Nc1ccccc1Cl)C3` the figure was 640 s.
With `CCN1CCCn2cc(S(=O)(=O)NCc3ccccc3)cc2C1=O` the figure was 711 s.
The compound `CC(NCC(O)COCCOc1ccc(F)cc1)c1ccccc1` (centres undefined) returned an RP-LC retention time of 595 s.
`O=C(CSc1ccc(F)cc1)N1CCC(COCc2ccccc2)CC1` returned an RP-LC retention time of 1030 s.
